Read-outs that look alike come from different tables or passages of the source.
How the values were obtained:
[1] = Stability in HIS9 (intestinal S9); format: in vitro ADME, human; details: 10 μM, 1.0 mg/mL protein, NADPH, 60 min
Method: HLM=Human liver microsome; HIM=Human intestinal microsome; HLS9=Human liver S9 fraction; HIS9=Human […] S9 fraction; SGF=Simulated gastric fluid; SIF=Simulated intestinal fluid.
Stability of Compound 1 and its diastereomer were determined in subcellular fractions (microsomes and S9) of human liver and intestine in duplicate for each matrix. Pooled liver and intestinal microsomal, intestinal and liver S9 proteins (1.0 mg/mL), suspended in incubation buffer (100 mM potassium phosphate, pH 7.4, 5 mM MgCl2, and 0.1 mM EDTA), were preincubated for 5 min at 37° C. with 10 μM of a test compound from a 10 mM stock solution in DMSO (final DMSO concentration was 0.1%); the reaction was initiated by the addition of NADPH (3 mM final concentration). At specific times (0 and 60 min), 0.1 mL samples were taken and the reaction terminated by the addition of 4 volumes of stop solution (acetonitrile with 500 ng/mL carbutamide as an internal standard). The samples were vortexed for 30 sec and then centrifuged at 16,000 g for 10 min. 100 μL of supernatants were transferred to 96 deep-well plates preloaded with 100 μL distilled water and analyzed after mixing by LC-MS/MS. The MS peak area ratio of the test compound versus the internal standard was calculated and percent unchanged test compound over 60 minutes was calculated using this ratio.

HCV genotype 1b replicon = assay: microbe, parasite or virus in culture; format: cell-based; details: read-out: HCV Replicon EC50
Method: Huh-7-derived cell line (Zluc) that harbors an HCV genotype 1b replicon and a luciferase reporter gene was grown in Dulbecco's Modified Eagle Medium (DMEM) supplemented with 10% fetal bovine serum, 2 mM GlutaMAX, 1% MEM nonessential amino acids, 100 IU/mL penicillin, 100 μg/mL streptomycin, and 0.5 mg/mL Geneticin® (G418). For dose response testing the cells were seeded in 96-well plates at 7.5×10^3 cells per well in a volume of 50 μL, and incubated at 37° C./5% CO2. Drug solutions were made up freshly in Huh-7 media as 2× stocks. Ten additional 5-fold dilutions were prepared from these stocks in DMEM without G418. At least three hours after Zluc cells were seeded, drug treatment was initiated by adding 50 μL of drug dilutions to the plates in duplicate. […] Cells were then incubated at 37° C./5% CO2. Alternatively compounds were tested at two concentrations (10 nM and 100 nM). […] For this, media was removed from the plates via gentle tapping. Fifty microliters of ONE-glo luciferase assay reagent was added to each well. […] The EC50 values were calculated from dose response curves from the resulting best-fit equations determined by Microsoft Excel and XLfit 4.1 software.

Huh-7 cells = assay: Release of active metabolite in Huh-7 cells; format: in vitro ADME; details: intracellular triphosphate, 10 μM test compound
Method: Huh-7 cells were plated in 1 mL culture medium (DMEM, containing glucose, L-glutamine and sodium pyruvate, 10% FBS, 100 IU/mL penicillin, 100 μg/mL streptomycin, 2 mM GlutaMAX, 1% MEM non-essential amino acids) at the concentration 0.8, 0.4 and 0.2 million cells per well on 6 well plates for 24, 48 and 72 hr treatment, respectively. Plated cells were incubated overnight at 37° C. in an incubator.
The following morning the test compound was diluted to 20 μM from a stock solution in DMSO in fresh culture medium pre-warmed to 37° C. and 1 mL of the solution/well was added to cells. A final medium volume per well was 2.0 mL, the test compound concentration in well was 10 μM and final DMSO concentration was 0.1%.
After 24, 48 or 72 hr, the medium was carefully removed and cell monolayers were washed twice with 2 mL ice-cold PBS per well. Following the last wash, all PBS was carefully removed and 1.0 mL of extraction solution (ice-cold 70% methanol) added. The plate was tightly covered with Parafilm, plastic plate cover and Parafilm again and an intracellular content was extracted at −20° C. for 24 hr.
After 24 hr extracts were transferred into polypropylene microfuge tubes and dry on a refrigerated centrivap concentrator. Dry residues were reconstituted in 250 μL of HPLC-grade water and centrifuged at 16,000×g for 10 min. […]

fresh human hepatocytes = assay: Release of active metabolite in fresh human hepatocytes; format: in vitro ADME; details: intracellular triphosphate, 10 μM test compound
Method: Plates of fresh human and mouse hepatocytes were obtained on ice. The medium was removed and replaced with hepatocyte culture medium (William's E supplemented with penicillin-streptomycin, 1% L-glutamine, 1% insulin-transferrin-selenium and 0.1 μM Dexamethasone (Invitrogen) or with Invitro GRO HI medium complemented with Torpedo antibiotics (Celsis)). Cells were left overnight in an incubator at 37° C. to acclimatize to culture and the medium.
Hepatocyte incubations were conducted at a final volume of 0.5 mL hepatocyte culture medium/well (0.8 million cells/well for human and 0.5 million cells/well for mouse; 12 well plate no overlay, collagen coat). Culture medium from overnight incubation of cells was removed and replaced with fresh medium, pre-warmed to 37° C., containing 10 μM of the test compound from a stock solution in DMSO (final DMSO concentration was 0.1%). At each specific time point, incubation medium was removed and cell monolayers were carefully washed two times with ice-cold PBS. Following the last wash, all PBS was carefully removed and 1.0 mL of extraction solution (ice-cold 70% methanol/30% water) added. Cells were scraped off and suspended in the extraction solution, transferred to 2 mL polypropylene microfuge tubes and intracellular contents extracted overnight at −20° C.
After the overnight treatment the cellular extracts were prepared by centrifugation at 16,000×g for 10 min to remove cellular debris. The remaining sample was then dried using a refrigerated centrivap concentrator. Dry extracts were reconstituted in 1000 μL of HPLC-grade water and centrifuged at 16,000×g for 10 min. Aliquots (100 μL each) of the supernatant were transferred into a 96 well plate and 2′-C-methyl-adenosine 5′-triphosphate, trisodium salt (4 ng/mL final concentration) was added as the internal standard (1S) for LC-MS/MS analysis.
The incubation time points were 6, 24 and 48 hours for human hepatocytes and 1, 4, 8, 12 and 24 hours for mouse hepatocytes.

[2] = Stability in simulated gastric fluid (SGF); format: in vitro ADME; details: 100 μM, 2 hours at 37° C.
Method: Simulated gastric and intestinal fluids containing pepsin and pancreatin respectively were prepared according to the U.S. Pharmacopoeia USP291 procedure (www.pharmacopeia.cn/v29240/usp29nf24s0_ris1s126.html). Test compound (final concentration 100 μM) was incubated in duplicate in the appropriate fluid for 2 hours at 37° C. The samples were quenched with 200 μl cold acetonitrile, vortexed for 30 seconds and then centrifuged at 16,100 g for 10 min. The supernatants were analyzed by HPLC on a C-18 column with UV detection at 252 nm. The time 0 samples were prepared by adding SGF or SIF fluid to the quenching solvent followed by the test compound. Stability of the compound was determined by peak area the test compound after incubation and calculated as percent of the peak area observed at time zero.

Compound | Percent Remaining, HIS9 (1 hr) [1] | EC50 (HCV genotype 1b replicon; Hepatitis C virus, 72 h) | Huh-7 TP Cmax (Huh-7 cells) | FHH TP AUC (fresh human hepatocytes) | FHH TP Cmax (fresh human hepatocytes) | Percent Remaining, SGF [2] | EC50 (HCV genotype 1b replicon; Zluc cells, HCV genotype 1b replicon, luciferase, 72 hours of incubation)
CCOC(=O)OC(C)OP(=O)(N[C@@H](C)C(=O)OC(C)C)OC[C@H]1O[C@@H](n2cnc3c(OC)nc(N)nc32)[C@](C)(F)[C@@H]1O (single isomer, unassigned) [Compound 14] | 53% | < 100 nM | 410 pmol/mill cells | 4006 pmol.hr/mill cells | 155 pmol/mill cells | 91% | 
CCOC(=O)OC(C)OP(=O)(N[C@@H](C)C(=O)OC(C)C)OC[C@H]1O[C@@H](n2cnc3c(OC)nc(N)nc32)[C@](C)(F)[C@@H]1O (single isomer, unassigned) [Compound 15] | 76% |  | 198 pmol/mill cells | 4453 pmol.hr/mill cells | 139 pmol/mill cells | 97% | < 100 nM

From patent US20130064794A1, “Substituted Carbonyloxymethylphosphoramidate Compounds and Pharmaceutical Compositions for the Treatment of Viral Infections” (IDENIX PHARMACEUTICALS, INC., priority 2011, published 2013)
